Values after ≈ are worked out from the molar mass of the structure shown. Values joined by “and” are separate entries in the source; they are usually repeats but may differ in a detail not shown here. Equal entries are not always repeated. Where two headings read alike, the source gives them in different places.
How the values were obtained:
[1] = test system: LPS-induced production of NO by J774A.1 macrophages; assay: NO production assay, LPS-activated J774A.1 macrophages; assay type: cell-based; details: Mus musculus, J774.A1; 10 ng/ml LPS, 20 hr
Description: The J774A.1 mouse macrophage cell line was grown to confluence in DMEM medium containing 10% fetal bovine serum (FBS). Cells were harvested into single-cell suspensions (by incubation on ice and agitation), seeded into 96-well plates at 1×10^5 cells/well (200 μL volume) and incubated (5% CO2, 37° C.) overnight. Compounds were added to the cells at final concentrations ranging from 50 to 1 μM and pre-incubated for 1 hr. Lipopolysaccharide (LPS) was added to the cells at a final concentration of 10 ng/ml. After incubation for 20 hr, culture supernatants were harvested and transferred to a new 96-well plate. Levels of LPS-induced NO in the supernatants were quantified by Greiss reagent (Active Motif) with supernatants from unstimulated cells serving as a negative control.

[2] = Bioavailability in the CNS of the mouse; details: for concentration at 0.5 hr / concentration at 1 hr / concentration at 2 hr / concentration at 4 hr / Kp at 0.5 hr / Kp at 1 hr / Kp at 2 hr / Kp at 4 hr: ip, 10 mg/kg
Description: Compounds were administered via the indicated routes and blood samples were removed at various times up to 24 hr. Concentration of compound was determined by LC/MS.

[3] = test system: E. coli; assay: Antibacterial activity, E. coli MIC; assay type: cell-based; details: Escherichia coli; Table 8
[4] = test system: cerebellar granule neurons; assay: Glutamate-induced neurodegeneration in cerebellar granule neurons (MTT); assay type: cell-based, C57BL/6 mouse; details: Mus musculus, Neuron
Source text: The method for isolation of cerebellar granule neurons has been previously described in published studies. Neonate C57BL/6 mouse pups, 7-8 days old, are obtained. Heads are removed and rinsed in 70% alcohol and transfered to an 85 mm dish filled with PBS on ice. Heads are cut, the brains removed, and the cerebella dissected and placed in a 50 mm dish with PBS on ice. The meninges, choroids plexus and blood vessels are removed from the cerebellum and the cleaned organ is transferred to a 35 mm dish with Hank's buffered salt solution (HBSS) containing Ca^2+ and Mg^2+. Each cerebellum is cut into pieces and incubated with trypsin solution at 37° C. for 10 minutes, after which 0.5 mg/ml (final concentration) trypsin inhibitor and 0.1 mg/ml (final concentration) DNAse are added. After centrifugation, cerebellar fragments are resuspended in dissociation medium (HBSS with Ca^2+, Mg^2+, trypsin inhibitor, DNAse) and a single cell suspension generated by agitation with a Pasteur pipette. After the coarse debris settles, the supernatant (cell suspension) is passed through a cell strainer (40 μm, Becton Dickinson #1942501) into a 50 ml sterile tube and the cells centrifuged. Cells are washed and re-suspended in culture medium (BME Basal Medium containing 10% fetal bovine serum, 100 IU/ml penicillin/streptomycin, 10 mM HEPES, 25 mM KCl, 2 mM L-glutamine).
The cell suspension is transferred to poly-D-lysine-coated dishes and incubated for 25 min at 37° C. in 5% CO2. After incubation, the non-adherent cells are removed and counted with a hemocytometer. A suspension of 0.9×10^6 cells/ml is prepared in culture medium, and 100 μL volumes are added per well (250,000 cells/cm^2) in poly-D-Lysine coated 96-well plates. One day after plating, cytosine arabinoside (AraC) is added to a final concentration of 10 μM. After 6-8 days of in vitro culture, the neurons are ready to be used in the assay.
To test the activity of Compound 1 and minocycline, compounds were added to the neuron cultures at varying concentrations. Buffer was added to some cells as a negative control. After pre-incubation with compound for 30 minutes at 5% CO2, 37° C., glutamate was added at a final concentration of […] and the cells further incubated for 1 hour. Glutamate was not added to some cells as a positive control for cell survival. After the 1 hr period, cells were washed once with culture medium and 100 μL of fresh medium were added per well. Compounds were re-added to the cells and the cultures were incubated overnight at 5% CO2, 37° C. […] Spectrophotometric absorbance at wavelength 570 nm was measured using a microplate reader.
The MTT absorbance for non-stimulated cells was considered the 100% survival level.

[5] = Table 4, unit inferred, read-out: Neuroprotection (mouse CGN)
[6] = concentration at which 50% of the maximum response is observed, read-out: EC50, survival of glutamate-stimulated cerebellar granule neurons

## CN(C)c1ccc(O)c2c1C[C@H]1C[C@H]3[C@H](N(C)C)C(O)=C(C(N)=O)C(=O)[C@@]3(O)C(O)=C1C2=O [Minocycline, minocycline, reference compound]
[1]
  IC50: 46000 ± 2100 nM
[2]; brain
  concentration at 0.5 hr: 138 ng/g
  concentration at 1 hr: 380 ng/g
  concentration at 2 hr: 317 ng/g
  concentration at 4 hr: 327 ng/g
[2]; brain/plasma
  Kp at 0.5 hr: 0.095
  Kp at 1 hr: 0.253
  Kp at 2 hr: 0.508
  Kp at 4 hr: 0.688
[2]; monkey, iv, 5 mg/kg
  AUC: 55.8 µM·h
  Cmax: 29.9 µM
  half-life: 10.4 h
[2]; monkey, po, 5 mg/kg
  AUC: 44.6 µM·h
  Cmax: 4.4 µM
  Tmax: 3 h
  bioavailability: 80.1%
[2]; plasma
  concentration at 0.5 hr: 1450 ng/mL
  concentration at 1 hr: 1500 ng/mL
  concentration at 2 hr: 623 ng/mL
  concentration at 4 hr: 475 ng/mL
[2]; rat, iv, 1 mg/kg
  AUC: 2.4 µM·h
  Cmax: 0.93 µM
  half-life: 3.6 h
[2]; rat, po, 5 mg/kg
  AUC: 3.6 µM·h
  Cmax: 0.4 µM
  Tmax: 1.7 h
  bioavailability: 30.7%
[3]
  MIC: 1 µg/mL (≈ 2.19 µM)
[4]; [5]
  EC50: 1400 ± 100 nM
[4]; [6]
  EC50: 1400 nM

## CCc1cc(N(C)C)c2c(c1O)C(=O)C1=C(O)[C@]3(O)C(=O)C(C(N)=O)=C(O)[C@@H](N(C)C)[C@@H]3C[C@@H]1C2 [Compound 1]
[1]
  IC50: 30000 nM
[2]; monkey, iv, 5 mg/kg
  AUC: 70 µM·h
  Cmax: 28.5 µM
  half-life: 5.7 h
[2]; monkey, po, 5 mg/kg
  AUC: 46.7 µM·h
  Cmax: 8.6 µM
  Tmax: 3 h
  bioavailability: 66.9%
[2]; mouse, in vivo
  Kp at 0.5 hr: 0.179
  Kp at 1 hr: 0.284
  Kp at 2 hr: 0.568
  Kp at 4 hr: 1.17
  concentration at 0.5 hr: 6860 ng/mL and 1230 ng/g
  concentration at 1 hr: 6360 ng/mL and 1810 ng/g
  concentration at 2 hr: 7020 ng/mL and 3990 ng/g
  concentration at 4 hr: 3680 ng/mL and 4310 ng/g
[2]; rat
  half-life: 3.5 h
[2]; rat, iv, 5 mg/kg
  AUC: 54.4 µM·h
  Cmax: 27.9 µM
[2]; rat, po, 5 mg/kg
  AUC: 14.3 µM·h
  Cmax: 1.25 µM
  Tmax: 2 h
  bioavailability: 26%
[3]
  MIC: > 64 µg/mL
[4]; [5]
  EC50: 2600 ± 900 nM
[4]; [6]
  EC50: 2600 nM
